Source: patent US20120288442A1, “Nuclear Imaging Method Using Molecular Target Detection Agent for Liver Fibrosis” (ATOMIC ENERGY COUNCIL-INSTITUTE OF NUCLEAR ENERGY RESEARCH, priority 2011, published 2012)

Target: T1, CB1 receptor of liver fibrosis cell (Mus musculus, UniProt P47746)
T1 construct: from tissue; host or cells: liver of living mice (one fibrotic, one normal), in vivo imaging
Assay: fluorescence imaging of a mouse having liver fibrosis and a normal mouse with Tocrifluor
Assay type: in vivo
Settings: for a 543 nm light; FIG. 3B and FIG. 3C

T1 sequence (P47746 whole entry): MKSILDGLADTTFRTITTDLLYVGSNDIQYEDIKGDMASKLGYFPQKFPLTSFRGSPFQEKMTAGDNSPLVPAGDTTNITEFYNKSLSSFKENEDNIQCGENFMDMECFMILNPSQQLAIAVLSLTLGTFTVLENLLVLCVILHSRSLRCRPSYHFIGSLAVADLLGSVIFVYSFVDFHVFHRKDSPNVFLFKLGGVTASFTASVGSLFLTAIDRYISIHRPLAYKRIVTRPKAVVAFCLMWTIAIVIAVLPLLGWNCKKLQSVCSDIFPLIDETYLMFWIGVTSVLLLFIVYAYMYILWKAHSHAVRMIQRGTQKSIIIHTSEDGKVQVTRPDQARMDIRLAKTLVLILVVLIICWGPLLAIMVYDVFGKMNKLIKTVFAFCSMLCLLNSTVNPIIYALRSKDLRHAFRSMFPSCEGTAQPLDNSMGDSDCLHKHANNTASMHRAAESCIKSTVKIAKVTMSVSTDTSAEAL

## N-(Piperidin-1-yl)-5-(4-(4-(3-(5-carboxamidotetramethyl rhodaminyl)propyl))phenyl)-1-(2,4-dichlorophenyl)-4-methyl-1H-pyrazole-3-carboxamide [Tocrifluor]
  fluorescence found at wavelength: 590 nm
